Where two headings read alike, the source gives them in different places.

The conditions of data set [1]: for θ2 (factor associated with the covariate) / θ1 (typical value of V/F) / θ1 (typical value of ka): univariate model.
The conditions of data set [2]: cited from earlier work.
Data set [3] can be described thus: clinical. The following applies: both, human, in vivo.
Data set [4] in a line: Plasma concentrations. The following applies: human, oral, ritonavir AUC0–24, median, external dataset, 18 HIV-infected patients, atazanavir/ritonavir/saquinavir 200/100/1600 mg once daily. It counts as in vivo.
Where [5] appears, read: final model, 300/100 mg once daily.
Where [6] appears, read: influence of Black-African ethnicity on V/F: V = θ1 * θ2^AFR.
Where [7] appears, read: influence of Black-African ethnicity on ka: ka = θ1 * θ2^AFR.
The mark [8] stands for this setting: influence of HIV status on V/F: V = θ1 * θ2^HIV.
Setting [9] is: influence of HIV status on ka: ka = θ1 * θ2^HIV.
Where [10] appears, read: influence of Hispanic ethnicity on ka: ka = θ1 * θ2^HSP.
Where [11] appears, read: influence of RTV AUC0–24 on V/F: V = θ1 * (RTV/7.52)^θ2.
[12] abbreviates: influence of SQV on V/F: V = θ1 * θ2^SQV.
Where [13] appears, read: influence of TDF on V/F: V = θ1 * θ2^TDF.
[14] abbreviates: influence of TDF on ka: ka = θ1 * θ2^TDF.
Setting [15] is: influence of sex on V/F: V = θ1 * θ2^SEX.
Where [16] appears, read: influence of weight on V/F: V = θ1 + θ2 * (WT − 76.2).

As to `COC(=O)N[C@H](C(=O)N[C@@H](Cc1ccccc1)[C@@H](O)CN(Cc1ccc(-c2ccccn2)cc1)NC(=O)[C@@H](NC(=O)OC)C(C)(C)C)C(C)(C)C` [atazanavir, Atazanavir], the “IIV CL/F (inter-individual variability)” value in data set [1] (basic model) was determined as 48%; in data set [1] (setting [5]), 29%. For the same compound, the “IIV V/F (inter-individual variability)” value in data set [1] (basic model) and in data set [1] (setting [5]) was 48% throughout. The “IIV ka (inter-individual variability)” value in data set [1] (basic model) and in data set [1] (setting [5]) was 154% each time. In data set [1] (basic model (no covariates), 300/100 mg once daily), the “CL/F (apparent oral clearance)” value turned out to be 7.6 L/h. The “mean individual predicted CL/F” value is on record as 6.40 L/h in data set [1] (females) and 8.99 L/h in data set [1] (males). The “reduction of variability of CL/F by inclusion of ritonavir AUC0–24 as covariate” value in data set [1] (final versus basic model) is on record as 19%. For the same compound, the “lower mean individual predicted CL/F in females compared with males” value in data set [1] (not significant) is on record as approximately 29%. In addition, the “θ2 (factor associated with the covariate)” value in data set [1] (influence of Black-African ethnicity on CL/F: CL = θ1 * θ2^AFR) was 0.91; in data set [1] (setting [6]), 1.23; in data set [1] (setting [7]) it was 1.44; in data set [1] (influence of HIV status on CL/F: CL = θ1 * θ2^HIV), 0.80; in data set [1] (setting [8]), 0.81; in data set [1] (setting [9]), 1.42. In addition, the “θ2 (factor associated with the covariate)” value in data set [1] (influence of Hispanic ethnicity on CL/F: CL = θ1 * θ2^HSP) was 1.60; in data set [1] (setting [10]), 4.42; in data set [1] (influence of RTV AUC0–24 on CL/F: CL = θ1 * (RTV/7.52)^θ2) it was −0.84; in data set [1] (setting [11]), −0.50; in data set [1] (influence of SQV (1600 mg once daily) on CL/F: CL = θ1 * θ2^SQV), 0.67; in data set [1] (setting [12]), 0.64. In addition, the “θ2 (factor associated with the covariate)” value in data set [1] (influence of TDF (300 mg once daily) on CL/F: CL = θ1 * θ2^TDF) was determined as 0.83; in data set [1] (setting [13]), 0.71; in data set [1] (setting [14]) it was 1.10; in data set [1] (influence of sex on CL/F: CL = θ1 * θ2^SEX), 0.77; in data set [1] (setting [15]) it was 1.26; in data set [1] (influence of weight on CL/F: CL = θ1 + θ2 * (WT − 76.2)) it was 0.13. The “θ2 (factor associated with the covariate)” value in data set [1] (setting [16]) was 1.26. Also, the “θ1 (typical value of V/F)” value in data set [1] (setting [6]) was 100; in data set [1] (setting [8]) it was 118; in data set [1] (setting [11]), 104; in data set [1] (setting [12]) it was 123; in data set [1] (setting [13]), 108; in data set [1] (setting [15]) it was 98.7. The “θ1 (typical value of V/F)” value in data set [1] (setting [16]) amounted to 105. Moreover, the “θ1 (typical value of ka)” value in data set [1] (setting [7]) came out at 3.28; in data set [1] (setting [9]) it was 2.77; in data set [1] (setting [10]), 2.81; in data set [1] (setting [14]), 3.43. The “AUC0–24 lower in HIV patients compared with healthy individuals” value in data set [2] is listed as approximately 20%. The “minimum concentrations lower in HIV patients compared with healthy individuals” value in data set [2] is on record as approximately 50%. Also, in data set [2], the “peak concentrations lower in HIV patients compared with healthy individuals” value was approximately 30%. The half-life in data set [2] (population analysis by Colombo et al.) is on record as 8.8 h. This compound registered a Vd/F in data set [3] of 103 L.

`CC(C)c1nc(CN(C)C(=O)N[C@H](C(=O)N[C@@H](Cc2ccccc2)C[C@H](O)[C@H](Cc2ccccc2)NC(=O)OCc2cncs2)C(C)C)cs1` [ritonavir] gave an AUC(0-t) in data set [4] of 9060 ng·h/mL.

For orientation: half-life means how long it takes for the measured level to halve. One may read the Vd/F as the volume of distribution divided by bioavailability. By AUC(0-t) is commonly meant exposure summed from dosing to a finite time, without extrapolation to infinity.

Source of the values: publication PMC2680345 (Journal of Antimicrobial Chemotherapy, 2009).
